The subject of series [1] is obesity-induced NASH-associated mouse liver cancer model. The experiment in a line: DMBA plus high fat diet-induced NASH-associated mouse liver cancer model: tumor development and body weight. In kind it is in vivo. The method, then: FIG. 1 depicts a mouse model timeline developed by treating with 7,12-dimethylbenz(a)anthracene (“DMBA”), and by feeding with a high fat diet (HFD). Compound A was administered to the mice every day from 19 weeks of age to 30 weeks of age and then euthanized (“Eut”).
FIG. 2 is macroscopic photographs of the liver isolated from the vehicle-treated mice (left side) and Compound A-treated mice (right side). […] Compound A or a vehicle (n=5, each) were treated to the mice every day from 19 weeks of age to 30 weeks of age. Arrowheads identify hepatocellular carcinomas (HCCs).
FIG. 3 depicts the average liver tumor numbers and the relative size distribution (classified as >6 mm, 2-6 mm, 2 mm). “NS” means not significant.
FIG. 4 depicts the average body weight of the vehicle-treated group and Compound A-treated group at the age of 30 weeks. Data are represented as means±SD.
C57/BL6 mice were purchased from CLEA Japan Inc. The TIr2^−/− mice (C57/BL6) were purchased from Oriental Yeast Co. Ltd.
Hematoxylin and eosin staining and immunofluorescence analysis were performed as previously described (Yoshimoto et al., Nature, 2013, 499:97-101).
P values less than 0.05 were considered significant. “NS” indicates not significant.
This mouse model was developed by treating with DMBA, 7,12-dimethylbenz(a)anthracene, and by feeding a high fat diet (HFD) (Ootani 2013). […] In this experiment, Compound A 30 mg/kg QD was administered to the mice every day from 19 weeks of age to 30 weeks of age (FIG. 1). As a control, a separate group of mice were treated only with a vehicle and no active ingredient.

In series [2] the test system is immune cells obtained from mouse livers. To be noted: liver, 30 mg/kg QD, vs vehicle. The method, then:
FIG. 5A depicts flow cytometry analysis of immune cells between vehicle-treated mice or Compound A-treated mice. The percentages of total CD11c^hi MHC class II (MHC II)^hi, CD11b^+ CD11c^hi MHC II^hi, or CD103^+ CD11c^hiMHC II^hi cells were analyzed by flow cytometry. Data are represented as means±SEM.
FIG. 6A depicts the percentages of CD3^+ CD4^+ Foxp3^+, CD3^+ CD4^+ Foxp3^−, CD3^+ CD8^+ cells analyzed by flow cytometry. The ratio of CD8^+ T cells to CD4^+ Foxp3^+ Tregs was calculated. Data are represented as means±SEM. NS=not significant, *p<0.05, **p<0.01.
In FIG. 7A, the percentages of CD69^+ CD8^+ cells were analyzed by flow cytometry (*p<0.05, **p<0.01).
In FIG. 8A, the percentages of PD-1^+ CD8^+ cells were analyzed by flow cytometry (*p<0.05, **p<0.01).
Immune cells were obtained from mouse livers and were subjected to measuring cytokine production and flow cytometric analysis.
Data were analyzed by unpaired t-test with Welch correction (two-side) or Man-Whitney test (two-side). P values less than 0.05 were considered significant. “NS” indicates not significant.
The impact of EP4 blockage on the prevalence and activation status of immune cells was assessed.

`C[C@H](NC(=O)c1cc(Cl)cnc1Oc1cccc(F)c1)c1ccc(C(=O)O)cc1` [Compound A, 4-[(1S)-1-({[5-chloro-2-(3-fluorophenoxy)pyridin-3-yl]carbonyl}amino)ethyl]-benzoic acid]: the body weight result in series [1] (30 mg/kg QD, at the age of 30 weeks, FIG. 4) is “did not influence body weight”. Further, the “Hepatocellular carcinoma (HCC) development” value in series [1] (Compound A 30 mg/kg QD from 19 to 30 weeks of age, compared to vehicle-treated mice) is given as “strongly reduced”. Also, the “Tumor colony sized more than 6 mm” value in series [1] (after daily therapy from 19 to 30 weeks of age, FIG. 3) is “completely disappeared”. Besides, the “tumor number in the liver” value in series [1] (treated daily from 19 to 30 weeks of age, compared to vehicle-treated mice, FIG. 3) is recorded as “significantly inhibited”. Besides, in series [2] (FIG. 5A/5B), the “frequency of CD11b+ DCs” value is listed as “not changed”, the “frequency of CD11chi MHC class IIhi dendritic cells (DCs)” value is “not changed” and the “population of CD103+ DCs” value is listed as “increased”. In series [2] (FIG. 6A), the “frequency of CD8+ T cells” value is reported as “not changed” and the “ratio of CD8+ T cells to Tregs” value is “increased”. In series [2] (FIG. 6A/6B), the “frequency of CD4+Foxp3+ regulatory T cells (Tregs)” value is recorded as “significantly reduced” and the “frequency of CD4+Foxp3- T cells” value was “but not CD4^+Foxp3^− T cells, was significantly reduced”. Further, the “number of CD8+ T cells expressing the activation marker CD69” value in series [2] (FIG. 7A/7B) is “significantly increased”. In series [2] (FIG. 8A/8B), the “number of CD8+ T cells expressing programmed cell death-1 (PD-1)” value was “significantly reduced”.

The values above are taken from patent US10583129B2, “Use of EP4 receptor antagonists for the treatment of NASH-associated liver cancer” (AskAt Inc., priority 2016, dated 2020).
